Molecular target: T1, CCR(9) (Homo sapiens, UniProt P51686)
T1 construct: MOLT-4 cells were collected by centrifugation at 400×g at room temperature, then suspended at 50 million/ml in human serum; host or cells: MOLT-4
T1 sequence (P51686 1-369): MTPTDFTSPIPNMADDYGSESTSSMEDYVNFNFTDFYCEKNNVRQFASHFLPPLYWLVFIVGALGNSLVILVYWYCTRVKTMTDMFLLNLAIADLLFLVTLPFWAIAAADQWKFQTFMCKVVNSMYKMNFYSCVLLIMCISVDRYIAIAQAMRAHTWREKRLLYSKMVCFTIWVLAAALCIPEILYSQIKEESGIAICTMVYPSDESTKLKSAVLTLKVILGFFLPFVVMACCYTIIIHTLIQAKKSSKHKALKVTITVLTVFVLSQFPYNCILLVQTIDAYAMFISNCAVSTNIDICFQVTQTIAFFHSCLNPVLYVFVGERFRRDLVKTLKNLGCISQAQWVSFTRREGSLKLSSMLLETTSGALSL
Test: Serum chemotaxis assay (MOLT-4 cells, TECK-induced migration, ChemoTX)
Type: cell-based
Conditions: MOLT-4 cells in human serum, migration to recombinant human TECK, 90 minutes at 37° C.
Experimental: MOLT-4 cells were obtained from the American Type Culture Collection (Manassas, VA) and cultured in RPMI tissue culture medium supplemented with 10% fetal calf serum (FCS) in a humidified 5% CO2 incubator at 37° C. Recombinant human chemokine proteins TECK was obtained from R&D Systems (Minneapolis, MN). ChemoTX™ chemotaxis microchambers were purchased from Neuro Probe (Gaithersburg, MD). CyQUANT™ cell proliferation kits were purchased from Molecular Probes (Eugene, Oregon). Calcium indicator dye Fluo-4 AM was purchased from Molecular Devices (Mountain View, CA).
A serum chemotaxis assay was used to determine the efficacy of potential receptor antagonists at blocking the migration mediated through chemokine receptors, such as CCR(9). This assay was performed using the ChemoTX® microchamber system with a 5-μm pore-sized polycarbonate membrane. MOLT-4 cells were collected by centrifugation at 400×g at room temperature, then suspended at 50 million/ml in human serum, containing 50 mM HEPES (final pH of 7.2). The compound being tested or an equivalent volume of its solvent (DMSO) was then added to the cell/serum mixture at a final DMSO concentration of 0.125% (v/v), and this mixture was then incubated together at 37° C. for one hour. Separately, recombinant human TECK was diluted with chemotaxis buffer (HBSS+0.1% BSA), generally spanning a range from 0.1 nM to 500 nM, after which 29 μl of diluted chemokine was placed in the lower wells of the ChemoTX® plate. The 5-μm (pore size) polycarbonate membrane was placed onto the plate, and 20 μL of the cell/compound mixture was transferred onto each well of the membrane. The plates were incubated at 37° C. for 90 minutes, after which the polycarbonate membranes were removed and 5 μl of the DNA-intercalating agent CyQUANT (Invitrogen, Carlsbad, CA) was added to the lower wells. The amount of fluorescence, corresponding to the number of migrated cells, was measured using a Spectrafluor Plus plate reader (TECAN, San Jose, CA).
The A2 values were calculated from the following equation, comparing the efficacy of the test compound with that of the DMSO-only control at equi-active chemokine levels: Log(A2)=log[drug(M)]−log[(A′/A)−1] where A reflects the potency of the agonist in the absence of antagonist and A′ reflects the potency of the agonist in the presence of antagonist at a given concentration of drug ([drug(M)]). In Vivo Efficacy Models for Human IBD

Row | Chemotaxis A2 | SMILES
1 | +++ (100 nM > A2) | Cn1nnn(Cc2ccc(N3C(=O)[C@@](C)(c4ccc5c(c4)CCC(C)(C)O5)c4cc(Cl)ccc43)cc2)c1=O [(S)-5-chloro-3-(2,2-dimethylchroman-6-yl)-3-methyl-1-(4-((4-methyl-5-oxo-4,5-dihydro-1H-tetrazol-1-yl)methyl)phenyl)indolin-2-one]
2 | +++ (100 nM > A2) | CC1(C)CCc2cc([C@]3(C)C(=O)N(c4ccc(Cn5nn[nH]c5=O)cc4)c4ccc(Cl)cc43)ccc2O1 [(S)-5-chloro-3-(2,2-dimethylchroman-6-yl)-3-methyl-1-(4-((5-oxo-4,5-dihydro-1H-tetrazol-1-yl)methyl)phenyl)indolin-2-one]

From US12139475B2, “2-oxindole compounds” (CHEMOCENTRYX, INC., priority 2016, dated 2024)
